We go through two molecules from article PMC11022729 (Advanced Science, 2024).

For series [1], the system named is mice. Briefly: MC903 model of persistent itch. The following applies: i.p. at day 8, vs vehicle. Format: in vivo, mouse. As for the experimental part: (§1) We next assessed the efficacy of compound 6 in the treatment of chronic itching. […] These findings are important because they indicate that Slack activators can reduce existing itching.
Chronic itching was induced using the MC903 model.^[ [48] ^] The fur on the dorsolateral aspect of the neck was shaved under brief isoflurane anesthesia. Five days later, 20 µL MC903 (0.2 mM; Calcipotriol, Tocris) solved in absolute ethanol was applied to the skin at the back of the neck under brief anesthesia for 7 consecutive days. On day 8, the mice were habituated for 30 min in a plexiglass cylinder (30 cm in diameter). Compound 6 hydrochloride or vehicle was administered i.p., and 15 min later, spontaneous scratching was recorded over 30 min by videotaping.

Series [2] relates to mice. Kind of series: β-alanine-induced itch behavior. Format: in vivo, mouse. The following applies: i.p. The source says: (§2) Chloroquine‐induced scratching in mice is driven by MrgprA3 activation in the NP2 population of sensory neurons.^[ [10], [29] ^] To further explore the antipruritic efficacy of compound 6 in histamine‐independent itch, we assessed the behavioral response after s.c. injection of the peptide Ser‐Leu‐Ile‐Gly‐Arg‐Leu (SLIGRL) that evokes scratching by activation of MrgprC11,^[ [30] ^] which is expressed in the NP2 and NP3 population.^[ [10] ^] […] Moreover, compound 6 ameliorated histamine‐independent itch evoked by s.c. injection of β‐alanine that activates MrgprD^[ [31] ^] in the NP1 population of sensory neurons^[ [10] ^] (Figure 3F). In contrast, scratching induced by subcutaneous histamine was not affected by compound 6 (Figure 3G). The lack of an effect on histamine‐evoked scratching was supported by the low affinity of compound 6 for histamine H1 receptors, which was determined using a [^3H]‐pyrilamine competition binding assay in vitro (Table S3, Supporting Information). […] We also investigated the efficacy of compound 6 after peroral (p.o.) delivery.
(§3) Three to four days before the day of the experiment, the fur on the dorsolateral aspect of the neck was shaved under brief isoflurane anesthesia. […] Number of scratching bouts directed toward the nape of the neck was assessed over 30 min by videotaping. […]

In series [3] the test system is mice. Kind of series: Von Frey filament test. The following applies: 10 mg kg−1 i.p., hindpaws, vs vehicle. Format: in vivo.
For series [4], the system named is mice. Briefly: Pulse oximetry in conscious, freely moving mice. The following applies: 10 mg kg−1 i.p., observation period of 30 min. As for the experimental part:
To measure cardiovascular function, a pulse oximeter (MouseOX Plus, Starr Life Sciences Corp.) was used in conscious, freely moving mice. After three consecutive days of habituating the mice to the collar clip for at least 30 min, baseline measurements were performed. […] All the datasets were sampled at 1 Hz, error‐corrected according to the manufacturer's instructions, and averaged over 300 s for each time point.

The target in the next series is histamine H1 receptor (Homo sapiens, UniProt P35367). Kind of series: SafetyScreen44 panel. In kind it is binding. Also noted: purchased Eurofins Cerep P270. The following applies: 10 µM. As for the experimental part:
(§4) Measurements were performed in duplicate.
(§5) channel, which were obtainedfrom ratspecimens).
(§6) in brackets) specific for each target.

Series [5] concerns mice. Briefly: Observation of mouse behavior / signs of toxicity after systemic administration. In kind it is in vivo. The source says: To prepare for in vivo studies, we investigated the pharmacokinetic properties of compound 6. […] For comparison, we determined the plasma and brain loxapine levels. […] Collectively, the pharmacological and pharmacokinetic profiles of compound 6 make it an excellent molecule for in vivo pharmacodynamic studies.
With regard to the safety profile, it should be considered that Slack is expressed in various neuronal populations in the CNS, and gain‐of‐function mutations of KCNT1 have been associated with epileptic encephalopathies in humans.^[ [46] ^] Limited information exists concerning the incidence of seizures during loxapine treatment. […] However, the epileptogenic potential of brain‐penetrant Slack activators such as compound 6 should be carefully assessed in the future.

Series [6] deals with mice. Kind of series: SLIGRL-induced itch behavior. In kind it is in vivo, mouse. The following applies: 10 mg kg−1 i.p.
Excerpt: as §2, §3

For series [7], the system named is mice. Briefly: DNFB model of allergic contact dermatitis (persistent itch). In kind it is in vivo, mouse. The following applies: i.p. after the second DNFB exposure, vs vehicle. As for the experimental part:
as §1
To induce persistent itch, a model of allergic contact dermatitis^[ [32] ^] was used. The fur on the dorsolateral aspect of the neck was shaved under brief isoflurane anesthesia. Three to four days later, the shaved skin area was exposed to 100 µL of 0.15% 2,4‐dinitrofluorobenzene (DNFB) in acetone/olive oil (3:1). After 10–11 days, the skin was shaved again, and the DNFB solution was applied 3–4 days later (i.e., two painting sessions 14 days apart). Ninety minutes after the second DNFB application, the mice were habituated to a plexiglass cylinder (30 cm diameter) for 15 min. Compound 6 hydrochloride or vehicle was administered i.p., and 15 min later, spontaneous scratching was recorded over 30 min by videotaping.

Series [8] concerns mice. Briefly: Histamine-induced itch behavior. In kind it is in vivo, mouse. The following applies: i.p.
Excerpt: as §2, §3

A further series has as its system IB4-binding DRG neurons. Kind of series: Whole-cell current-clamp recordings on sensitized DRG neurons. Format: cell-based, mouse. The following applies: 50 µM.
Series [9] deals with T1, serotonin 5-HT1B receptor (Homo sapiens, UniProt P28222).
T1 construct: purchased Eurofins Cerep P270
T1 sequence (P28222 whole entry): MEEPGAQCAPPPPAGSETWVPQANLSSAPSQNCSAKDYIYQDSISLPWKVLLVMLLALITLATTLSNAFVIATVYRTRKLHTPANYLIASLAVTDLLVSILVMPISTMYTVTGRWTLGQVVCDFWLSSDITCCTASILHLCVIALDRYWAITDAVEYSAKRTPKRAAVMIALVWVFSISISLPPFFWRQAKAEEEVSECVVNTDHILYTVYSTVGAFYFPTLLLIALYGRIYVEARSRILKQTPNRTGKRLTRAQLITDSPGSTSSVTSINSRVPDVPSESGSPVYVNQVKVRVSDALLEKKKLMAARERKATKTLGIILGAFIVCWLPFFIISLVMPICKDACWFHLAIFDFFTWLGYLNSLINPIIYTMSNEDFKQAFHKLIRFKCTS
Briefly: SafetyScreen44 panel. The following applies: read-out: binding inhibition. As for the experimental part: as §4, §5, §6

The next series addresses muscarinic M2 receptor (Homo sapiens, UniProt P08172). Briefly: SafetyScreen44 panel. The following applies: read-out: binding inhibition. As for the experimental part: as §4, §5, §6
For series [10], the target named is human ether-à-go-go (hERG) potassium channel (Homo sapiens, UniProt Q12809). Kind of series: SafetyScreen44 panel. The following applies: 10 µM. As for the experimental part: as §4, §5, §6
Chain of human ether-à-go-go (hERG) potassium channel (Q12809 whole entry): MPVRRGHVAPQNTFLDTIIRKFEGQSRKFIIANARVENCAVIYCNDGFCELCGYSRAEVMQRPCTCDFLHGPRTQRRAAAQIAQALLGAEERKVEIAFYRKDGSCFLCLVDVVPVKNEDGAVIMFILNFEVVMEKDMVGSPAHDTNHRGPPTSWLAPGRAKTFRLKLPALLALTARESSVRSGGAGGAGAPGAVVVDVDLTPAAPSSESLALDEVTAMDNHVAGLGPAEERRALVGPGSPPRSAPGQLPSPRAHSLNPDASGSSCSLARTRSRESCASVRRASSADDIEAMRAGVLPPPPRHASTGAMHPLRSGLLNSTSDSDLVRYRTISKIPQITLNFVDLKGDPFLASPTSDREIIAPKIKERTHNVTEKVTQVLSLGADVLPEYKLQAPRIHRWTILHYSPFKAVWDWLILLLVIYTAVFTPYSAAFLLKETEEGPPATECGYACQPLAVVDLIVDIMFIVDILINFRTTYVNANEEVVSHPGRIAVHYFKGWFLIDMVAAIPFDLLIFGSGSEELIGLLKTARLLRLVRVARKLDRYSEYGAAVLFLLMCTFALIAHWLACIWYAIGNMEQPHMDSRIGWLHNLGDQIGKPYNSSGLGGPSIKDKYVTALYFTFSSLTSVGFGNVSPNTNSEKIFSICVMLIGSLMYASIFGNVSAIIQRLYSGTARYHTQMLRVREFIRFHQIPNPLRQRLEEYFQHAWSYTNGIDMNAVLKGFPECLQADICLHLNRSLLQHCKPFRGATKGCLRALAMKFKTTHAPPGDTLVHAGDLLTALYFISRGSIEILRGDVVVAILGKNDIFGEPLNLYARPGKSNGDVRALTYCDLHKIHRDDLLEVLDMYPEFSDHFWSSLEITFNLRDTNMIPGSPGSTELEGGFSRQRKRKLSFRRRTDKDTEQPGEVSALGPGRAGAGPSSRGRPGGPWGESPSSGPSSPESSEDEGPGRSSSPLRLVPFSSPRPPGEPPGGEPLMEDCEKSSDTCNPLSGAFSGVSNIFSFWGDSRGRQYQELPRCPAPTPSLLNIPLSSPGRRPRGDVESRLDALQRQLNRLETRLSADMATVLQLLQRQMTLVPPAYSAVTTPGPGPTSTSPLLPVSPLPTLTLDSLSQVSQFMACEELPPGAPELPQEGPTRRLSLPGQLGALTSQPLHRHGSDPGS
The next series concerns the target serotonin 5-HT3 receptor (Homo sapiens, UniProt P46098). Kind of series: SafetyScreen44 panel. The following applies: read-out: binding inhibition. As for the experimental part: as §4, §5, §6
A further series concerns the target histamine H2 receptor (Homo sapiens, UniProt P25021). Briefly: SafetyScreen44 panel. The following applies: read-out: binding inhibition. As for the experimental part: as §4, §5, §6
In series [11] the target is T2, serotonin 5-HT1A receptor (Homo sapiens, UniProt P08908).
T2 construct: purchased Eurofins Cerep P270
T2 sequence (P08908 whole entry): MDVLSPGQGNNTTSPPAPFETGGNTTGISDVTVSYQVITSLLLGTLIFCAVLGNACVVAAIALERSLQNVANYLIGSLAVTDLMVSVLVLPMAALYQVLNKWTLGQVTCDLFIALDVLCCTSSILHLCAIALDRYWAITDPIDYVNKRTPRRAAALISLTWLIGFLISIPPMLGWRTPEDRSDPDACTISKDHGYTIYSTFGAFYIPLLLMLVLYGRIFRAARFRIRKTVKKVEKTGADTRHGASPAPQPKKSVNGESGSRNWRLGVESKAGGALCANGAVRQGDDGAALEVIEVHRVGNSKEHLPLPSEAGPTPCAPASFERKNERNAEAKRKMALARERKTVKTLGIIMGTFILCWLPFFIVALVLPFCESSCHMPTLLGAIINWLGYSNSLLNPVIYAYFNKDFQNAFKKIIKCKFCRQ
Kind of series: SafetyScreen44 panel. The following applies: read-out: binding inhibition. As for the experimental part: as §4, §5, §6

In the next series the test system is Na+ channel. Briefly: SafetyScreen44 panel. The following applies: 10 µM.

Chain of muscarinic M2 receptor (P08172 whole entry): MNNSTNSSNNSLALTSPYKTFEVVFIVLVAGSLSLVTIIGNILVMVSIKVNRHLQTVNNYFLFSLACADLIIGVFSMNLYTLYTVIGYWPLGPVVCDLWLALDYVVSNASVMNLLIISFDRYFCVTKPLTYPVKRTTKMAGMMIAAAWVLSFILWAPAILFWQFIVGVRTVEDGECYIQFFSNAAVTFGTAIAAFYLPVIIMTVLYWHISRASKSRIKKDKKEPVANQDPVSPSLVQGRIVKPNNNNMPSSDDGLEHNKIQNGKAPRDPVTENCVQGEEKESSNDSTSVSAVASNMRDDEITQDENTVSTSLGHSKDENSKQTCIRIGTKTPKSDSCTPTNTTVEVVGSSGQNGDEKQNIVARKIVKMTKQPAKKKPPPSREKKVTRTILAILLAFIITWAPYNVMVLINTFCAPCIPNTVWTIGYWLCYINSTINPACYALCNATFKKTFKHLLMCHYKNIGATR
Chain of histamine H1 receptor (P35367 whole entry): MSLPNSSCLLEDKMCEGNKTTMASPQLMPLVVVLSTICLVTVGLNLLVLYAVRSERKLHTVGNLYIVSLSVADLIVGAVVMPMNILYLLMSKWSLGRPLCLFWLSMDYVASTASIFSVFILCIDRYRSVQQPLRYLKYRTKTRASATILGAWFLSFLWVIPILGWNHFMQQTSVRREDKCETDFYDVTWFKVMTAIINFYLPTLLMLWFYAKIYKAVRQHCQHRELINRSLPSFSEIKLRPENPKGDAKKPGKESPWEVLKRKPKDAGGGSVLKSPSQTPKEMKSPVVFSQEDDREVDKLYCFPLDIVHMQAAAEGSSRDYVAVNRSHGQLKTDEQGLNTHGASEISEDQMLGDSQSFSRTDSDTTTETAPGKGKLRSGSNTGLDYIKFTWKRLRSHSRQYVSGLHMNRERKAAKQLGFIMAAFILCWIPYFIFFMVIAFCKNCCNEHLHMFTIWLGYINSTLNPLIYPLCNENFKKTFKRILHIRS
Chain of histamine H2 receptor (P25021 whole entry): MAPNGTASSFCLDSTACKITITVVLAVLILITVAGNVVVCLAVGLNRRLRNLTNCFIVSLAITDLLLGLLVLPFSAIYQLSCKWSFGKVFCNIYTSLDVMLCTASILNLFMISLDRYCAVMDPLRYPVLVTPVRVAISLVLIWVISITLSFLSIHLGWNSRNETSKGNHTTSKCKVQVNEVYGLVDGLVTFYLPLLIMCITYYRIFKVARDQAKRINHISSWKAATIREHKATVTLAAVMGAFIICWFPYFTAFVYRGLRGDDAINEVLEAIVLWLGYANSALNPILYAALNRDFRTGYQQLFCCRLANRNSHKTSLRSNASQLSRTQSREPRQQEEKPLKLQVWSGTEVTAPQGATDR
Chain of serotonin 5-HT3 receptor (P46098 24-478): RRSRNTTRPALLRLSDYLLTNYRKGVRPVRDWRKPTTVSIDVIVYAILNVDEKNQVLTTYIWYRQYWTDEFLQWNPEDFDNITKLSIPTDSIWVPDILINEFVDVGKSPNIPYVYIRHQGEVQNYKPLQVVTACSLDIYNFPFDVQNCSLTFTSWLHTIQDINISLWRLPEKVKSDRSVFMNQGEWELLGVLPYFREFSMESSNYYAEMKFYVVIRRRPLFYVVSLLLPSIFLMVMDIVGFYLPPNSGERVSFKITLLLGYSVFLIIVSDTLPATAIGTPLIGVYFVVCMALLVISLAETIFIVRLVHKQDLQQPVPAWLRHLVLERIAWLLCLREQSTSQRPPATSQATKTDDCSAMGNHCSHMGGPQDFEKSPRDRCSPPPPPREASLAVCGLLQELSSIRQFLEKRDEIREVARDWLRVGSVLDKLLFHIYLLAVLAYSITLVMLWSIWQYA

As for `O=C(O)COCCN1CCN(C2=Nc3ccccc3Oc3ccc(Cl)cc32)CC1` [Compound 6], in the series on mice [1], the head shaking result is given as “significantly ameliorated” and the scratching result is recorded as “significantly ameliorated”. In addition, in the series with mice [2], the “itch evoked by s.c. injection of β-alanine” value is on record as “ameliorated”. Besides, the “mechanical sensitivity (von Frey filament test)” value in the series with mice [3] was “Neither mechanical nor thermal sensitivity was altered”. In the series on mice [4], the breath rate entry is “did not affect” and the heart rate result is on record as “did not affect”. At histamine H1 receptor, the binding inhibition result is recorded as “substantial binding”. Moreover, in the series on mice [5] (10 mg kg−1 i.p.), the “impairment of mouse behavior” value is listed as “No obvious impairment of mouse behavior”. Moreover, the “overt signs of seizures” value in the series on mice [5] (systemic administration, doses up to 30 mg kg−1) is given as “did not observe any overt signs of seizures”. Besides, in the series on mice [6], the SLIGRL-induced scratching behavior result is on record as “significantly inhibited”. Moreover, in the series on mice [7], the “number of head shakes” value was “significantly reduced” and the “number of scratching bouts” value is given as “significantly reduced”. Moreover, the “scratching induced by subcutaneous histamine” value in the series with mice [8] is reported as “not affected”. For the same molecule, in the series with IB4-binding DRG neurons (cells with recorded APs), the AP amplitude result is “Neither compound 6 nor the vehicle had a significant effect” and the “AP duration at 90% repolarization (APD90)” value is on record as “Neither compound 6 nor the vehicle had a significant effect”. The “resting membrane potential (RMP)” value in the series on IB4-binding DRG neurons (current injection 200–950 pA) is “Neither compound 6 nor the vehicle significantly affected”. Further, the “number of AP fired” value in the series with IB4-binding DRG neurons (current injection 200–950 pA, after inflammatory soup) is “profound decrease”. For the same molecule, in the series with IB4-binding DRG neurons (in the 7 cells with recorded APs), the “rheobase compared to baseline” value is recorded as “visibly, but not significantly, increased”. Besides, the “cells that elicited APs” value with IB4-binding DRG neurons (small currents (0–220 pA), vehicle 11 of 11) is listed as 7 of 13.
As a reminder, the inhibition is the drop in the measured response relative to a control, in per cent. As for `CN1CCN(C2=Nc3ccccc3Oc3ccc(Cl)cc32)CC1` [Loxapine, reference compound], the inhibition at 10 µM (in [9]; at muscarinic M2 receptor; on serotonin 5-HT3 receptor; on histamine H2 receptor; in [11]) was greater than 50% each time. Besides, the binding entry in series [10] was “did not measurably bind”. For the same molecule, the binding inhibition entry in the series with Na+ channel is given as “higher than 50%”.
